Assay results published in patent publication US20180196033A1, “CELL TRACKING REAGENTS AND THEIR METHODS OF USE” (LIFE TECHNOLOGIES CORPORATION, priority 2015, published 2018).
Where “and” joins values, the source holds several entries; their conditions need not be identical. Equal values may be shown once.

System: Human peripheral blood mononuclear cells (PBMCs)
Assay: Generational tracking of cell proliferation by dye dilution, flow cytometry
Type: cell-based
Settings: PBMCs stained with 10 mM stock at 1 μL per mL of cells, 20 min; stimulated with Interleukin-2 and CD3/CD28 DYNABEADS; 355 nm laser, 450/50 bandpass emission filter
Procedure: 20 mL whole blood were added to 20 mL DPBS and mixed well. 15 mL FICOLL-PAQUE® PLUS (GE Healthcare) were added to each of two 50 mL centrifuge tubes. 20 mL of the diluted whole blood was carefully layered on top. The tube containing the whole blood was centrifuged for 30 min at 400×g and the peripheral blood mononuclear cell (PBMC) layer was carefully removed. The cells were resuspended in 25 mL DPBS in a 50 mL centrifuge tube and centrifuged for 5 min at 400×g. The supernatant was decanted and the cells were resuspended in 10 mL DPBS. Cells were counted on a COUNTESS Automated Cell Counter (Thermo Fisher Scientific) with the concentration adjusted to 1×10^6 cells/mL in DPBS.
20 μL anhydrous DMSO was added to a vial of dry Compound 1 (64 μg) at room temperature. 1 mL of unstained cells was reserved as a control. Cells were labeled with 1 μL of 10 mM Compound 1, per milliliter of cell suspension. The tubes were immediately vortexed for 30 sec and the cells were incubated for 20 min at room temperature, protected from light. […]
2 mL of each sample were removed by first mixing sample with a pipet then transferring them to their own tubes. […] Cells were counted on a COUNTESS Automated Cell Counter with the concentration adjusted to 1×10^6 cells/mL in DPBS. […]

COc1ccc2cc(C(=O)ON3C(=O)CCC3=O)c(=O)oc2c1 [Compound 1]
time over which cell proliferation was followed (discrete peaks of successive generations of live, CD4 positive cells): 7 days and 6 days
